Publication PMC11361645, “Characterization of the small Arabidopsis thaliana GTPase and ADP-ribosylation factor-like 2 protein TITAN 5” (Journal of Cell Science, 2024)
Numbering of substitutions follows the chain as printed.

How the values were obtained:
Assay type in all cases: binding
TTN5 (TITAN 5) [1] = target: T1, TTN5 (TITAN 5) (Arabidopsis thaliana, UniProt Q9ZPX1); test: pull-down of GST-TTN5, bound nucleotide by HPLC; conditions: GST fusion; excess free GppNHp; single experiment
T1 construct: gene ARL2
T1 sequence (Q9ZPX1 1-185 limits assumed): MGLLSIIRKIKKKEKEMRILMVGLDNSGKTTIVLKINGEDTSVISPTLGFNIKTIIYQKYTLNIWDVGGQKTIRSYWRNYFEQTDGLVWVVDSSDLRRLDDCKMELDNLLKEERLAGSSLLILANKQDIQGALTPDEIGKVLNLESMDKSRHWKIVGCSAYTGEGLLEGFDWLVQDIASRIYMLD

TTN5 (TITAN 5) [2] = target: T1, TTN5 (TITAN 5); test: stopped-flow fluorimetry, koff/kon
TTN5 (TITAN 5) [3] = target: T2, TTN5 (TITAN 5) (Arabidopsis thaliana, UniProt Q9ZPX1, Q70L); test: stopped-flow fluorimetry, koff/kon
T2 construct: gene ARL2
T2 sequence (Q9ZPX1 1-185 Q70L limits assumed): T1 sequence (Q9ZPX1 1-185 limits assumed) with Q70L

TTN5 (TITAN 5) [4] = target: T3, TTN5 (TITAN 5) (Arabidopsis thaliana, UniProt Q9ZPX1, T30N); test: stopped-flow fluorimetry, koff/kon
T3 construct: gene ARL2
T3 sequence (Q9ZPX1 1-185 T30N limits assumed): T1 sequence (Q9ZPX1 1-185 limits assumed) with T30N

| Kd (TTN5 (TITAN 5) [2]) | Kd (TTN5 (TITAN 5) [3]) | Kd (TTN5 (TITAN 5) [4]) | SMILES | pull-down of GST-TTN5, bound nucleotide by HPLC (TTN5 (TITAN 5) [1]) |
| --- | --- | --- | --- | --- |
| – | – | – | Nc1nc2c(ncn2[C@@H]2O[C@H](COP(=O)(O)OP(=O)(O)NP(=O)(O)O)[C@@H](O)[C@H]2O)c(=O)[nH]1 [GppNHp] | Isolated GST–TTN5 bound to increasing amounts of GppNHp |
| 267 nM | 61 nM | 3090 nM | CNc1ccccc1C(=O)O[C@H]1C[C@H](n2cnc3c(=O)[nH]c(N)nc32)O[C@@H]1COP(=O)(O)OP(=O)(O)O [mdGDP, 2-deoxy-3-O-N-methylanthraniloyl GDP] | – |
